Test results as given in the NIST ThermoML archive (doi:10.1021/je7007654).
Numbers after ± are expanded uncertainties.

Assays:
[1] = 101 kPa, Liquid; for viscosity: Capillary tube (Ostwald / Ubbelohde) method; for speed of sound: Sing-around technique in a fixed-path interferometer
[2] = xn = mol fraction of the nth substance listed; details: 101 kPa, Liquid, x1 = 1; for viscosity: Capillary tube (Ostwald / Ubbelohde) method; for speed of sound: Sing-around technique in a fixed-path interferometer
[3] = 298.15 K, Vibrating tube method
[4] = 303.15 K, Vibrating tube method
[5] = 308.15 K, Vibrating tube method

CC(C)CCCC(C)CCCC(C)CCCCC(C)CCCC(C)CCCC(C)C (stereo not given) [2,6,10,15,19,23-hexamethyltetracosane]
viscosity ([1]; 298.15 K): 28.26 ± 0.18 mPa·s
speed of sound ([1]; 298.15 K): 1381.9 ± 1.2 m/s
mass density [1, 3]: 805.122 ± 0.23 kg/m3
viscosity ([1]; 303.15 K): 22.09 ± 0.14 mPa·s
speed of sound ([1]; 303.15 K): 1364.1 ± 1.2 m/s
mass density [1, 4]: 801.912 ± 0.24 kg/m3
viscosity ([1]; 308.15 K): 17.77 ± 0.12 mPa·s
speed of sound ([1]; 308.15 K): 1346.5 ± 1.2 m/s
mass density [1, 5]: 798.709 ± 0.24 kg/m3

CCCCO [butan-1-ol]
mass density ([1]; 298.15 K): 805.907 ± 0.67 kg/m3
viscosity ([1]; 298.15 K): 2.573 ± 0.016 mPa·s
speed of sound ([1]; 298.15 K): 1240.5 ± 0.8 m/s
mass density ([1]; 303.15 K): 803.155 ± 0.68 kg/m3
viscosity ([1]; 303.15 K): 2.275 ± 0.014 mPa·s
speed of sound ([1]; 303.15 K): 1226.5 ± 0.8 m/s
mass density ([1]; 308.15 K): 799.249 ± 0.69 kg/m3
viscosity ([1]; 308.15 K): 1.981 ± 0.013 mPa·s
speed of sound ([1]; 308.15 K): 1209.8 ± 0.8 m/s

CCCCO [butan-1-ol] + CC(C)CCCC(C)CCCC(C)CCCCC(C)CCCC(C)CCCC(C)C
viscosity ([2]; 298.15 K): 2.573 ± 0.016 mPa·s
speed of sound ([2]; 298.15 K): 1240.5 ± 0.8 m/s
mass density [2, 3]: 805.907 ± 0.14 kg/m3
viscosity ([2]; 303.15 K): 2.275 ± 0.014 mPa·s
speed of sound ([2]; 303.15 K): 1226.5 ± 0.8 m/s
mass density [2, 4]: 803.155 ± 0.14 kg/m3
viscosity ([2]; 308.15 K): 1.981 ± 0.013 mPa·s
speed of sound ([2]; 308.15 K): 1209.8 ± 0.8 m/s
mass density [2, 5]: 799.249 ± 0.14 kg/m3

CCCCO [butan-1-ol] + CCCCCCCCCCCCCCCC
viscosity ([2]; 298.15 K): 2.573 ± 0.016 mPa·s
speed of sound ([2]; 298.15 K): 1240.5 ± 0.8 m/s
mass density ([2]; 298.15 K): 805.907 ± 0.67 kg/m3
viscosity ([2]; 303.15 K): 2.275 ± 0.014 mPa·s
speed of sound ([2]; 303.15 K): 1226.5 ± 0.8 m/s
mass density ([2]; 303.15 K): 803.155 ± 0.68 kg/m3
viscosity ([2]; 308.15 K): 1.981 ± 0.013 mPa·s
speed of sound ([2]; 308.15 K): 1209.8 ± 0.8 m/s
mass density ([2]; 308.15 K): 799.249 ± 0.69 kg/m3

CCCCCCCCCCCCCCCC [hexadecane]
mass density ([1]; 298.15 K): 770.456 ± 0.84 kg/m3
viscosity ([1]; 298.15 K): 3.041 ± 0.023 mPa·s
speed of sound ([1]; 298.15 K): 1338.6 ± 1.2 m/s
mass density ([1]; 303.15 K): 766.981 ± 0.85 kg/m3
viscosity ([1]; 303.15 K): 2.706 ± 0.02 mPa·s
speed of sound ([1]; 303.15 K): 1320 ± 1.2 m/s
mass density ([1]; 308.15 K): 763.52 ± 0.86 kg/m3
viscosity ([1]; 308.15 K): 2.409 ± 0.018 mPa·s
speed of sound ([1]; 308.15 K): 1301.7 ± 1.2 m/s
